{"source": "patent US11851697B2", "about": "“Ex vivo protease activity detection for disease detection/diagnostic, staging, monitoring and treatment” (Glympse Bio, Inc., priority 2020, dated 2023)", "key": {"[1]": {"system": "proteases in NASH and healthy plasma cleaving Probe #102", "test": "Inhibitor profiling of Probe #102 cleavage in NASH and healthy plasma", "assay_type": "biochemical, mice", "description": "For this experiment, all plasma samples were prepared individually and diluted 1/10e in PBS with inhibitor added directly to the samples. Inhibitor was prepared at 15× concentration to final. Substrates were diluted in DI water at 18 uM, such that the final concentration on the plate would be 6 uM. All samples were prepared such that their last dilution on the plate would not affect the desired final concentration. 10 ul of each individual sample was pipetted into their corresponding wells, and the plate was then spun down in the centrifuge at 1500 RPM for 30 seconds to coat the bottom of each well with the sample. 5 ul of the 18 uM substrate solution was pipetted into each well being used on a 384 well plate, and then the plate was spun down in the centrifuge at 1500 rpm for 30 seconds. The plate was placed immediately in the plate reader at 37° C. for a 30-minute-long fluorescence kinetic read at 485/535 extended gain.\nTo assess the proteolytic cleavage pattern of Probe #102, samples were tested using a pool of broad inhibitors for serine, cysteine, threonine, MMP and aspartic protease family members (broad inhibitor) to assess general protease activity, AEBSF for serine proteases, E64 for cysteine proteases, CTSi for broad cathepsin inhibition of cathepsins L, S, K and B, or specific inhibitors for cathepsin K (L00625), for cathepsin L (SID) or cathepsin B (CA074)."}, "[2]": {"details": "cited from earlier work"}, "[3]": {"system": "caspase activity in hepatitis", "test": "Ex vivo probe cleavage in plasma of Jo2 fulminant hepatitis mice", "assay_type": "biochemical", "details": "mouse plasma 3 hours after Jo2 injection vs healthy", "description": "Fulminant hepatitis is induced after injection intraperitoneal of monoclonal antibody anti-CD95 (Jo2, BD biosciences, 4 ug/animal), and mouse plasma samples were collected 3 hours after Jo2 injection."}, "COVID-related proteases": {"system": "COVID-related proteases", "test": "Ex vivo probe cleavage in COVID vs healthy K2EDTA and Lithium Heparin plasma", "assay_type": "biochemical"}, "[4]": {"system": "cathepsin and/or MMP protease activities", "test": "Ex vivo probe cleavage in plasma of healthy, NASH regression and NASH progression mice", "assay_type": "biochemical", "details": "K2EDTA plasma collected at 20 weeks", "description": "Plasma samples were collected from all animals at 20 weeks.\nThe probes showing the most differentiation in NASH were linked to cathepsin and/or MMP protease activities."}, "[5]": {"details": "both K2EDTA and Lithium Heparin plasma sets"}}, "note": "Square brackets hold non-standard residues; d marks the D form. Primed or numbered codes have the meaning given here. Ends that are not written are not given here. CPQ2(3) = quencher on Lys side chain; FAM = fluorescent reporter; PEG2″ = PEG2 spacer; CPQ2 = quencher"}
{"molecule": "NCCc1ccc(S(=O)(=O)F)cc1", "note": "[AEBSF]", "values": [{"measurement": "decrease of NASH signal", "setting": "[1]; NASH plasma, Probe #102", "result": 65, "unit": "%"}, {"measurement": "decrease of healthy signal", "setting": "[1]; healthy plasma, Probe #102", "result": 60, "unit": "%"}]}
{"molecule": "CCCNC(=O)[C@H]1O[C@@H]1C(=O)N[C@H](C(=O)N1CCC[C@H]1C(=O)O)[C@@H](C)CC", "note": "[CA074]", "values": [{"measurement": "effect on signal for NASH or healthy samples", "setting": "[1]; Probe #102", "result": "did not significantly decrease signal"}]}
{"molecule": "O=c1[nH]c(-c2ccccc2O)nc2ccccc12", "note": "[HPQ, 2-(2″-hydroxyphenyl)-4(3H)-quinazolinone]", "values": [{"measurement": "solubility in water", "setting": "[2]", "result": "strictly insoluble in water"}]}
{"molecule": "O=c1nc(-c2cc(C(=C(c3ccccc3)c3ccccc3)c3ccccc3)ccc2O)[nH]c2ccc(Cl)cc12", "note": "[HTPQ]", "values": [{"measurement": "solubility in water", "setting": "[2]", "result": "strictly insoluble in water"}]}
{"molecule": "CC(C)C[C@H](NC(=O)[C@H]1O[C@@H]1C(=O)O)C(=O)NCCCCN=C(N)N", "note": "[Probe E64, E64]", "values": [{"measurement": "effect on NASH signal", "setting": "[1]; NASH plasma, Probe #102, less decrease in signal for healthy", "result": "decreased NASH signal significantly"}]}
{"molecule": "CN1CCN(c2nc(-c3ccc(C(=O)NC4(C(=O)NCC#N)CCCCC4)cc3)cs2)CC1", "note": "[Probe L006235]", "values": [{"measurement": "effect on signal for NASH or healthy samples", "setting": "[1]; Probe #102", "result": "did not significantly decrease signal"}]}
{"molecule": "Probe #8: Caspase centric probe (GVDVADGK; not fully specified; 5-FAM, CPQ2 quencher, PEG2; MOD_RES (8)..(8) Lys modified with a CPQ2 quencher)", "values": [{"measurement": "contrast in Jo2 hepatitis model", "setting": "[3]", "result": "show contrast that is specific and sensitive to the Jo2 model"}]}
{"molecule": "Probe #12: Caspase centric probe (GDEVDGK; not fully specified; 5-FAM, CPQ2 quencher, PEG2; MOD_RES (7)..(7) Lys modified with a CPQ2 quencher)", "values": [{"measurement": "contrast in Jo2 hepatitis model", "setting": "[3]", "result": "show contrast that is specific and sensitive to the Jo2 model"}]}
{"molecule": "Probe #18: a Neutrophil elastase substrate (GAAPVGK(CPQ2); not fully specified (N-terminus, C-terminus); also: 5-FAM (place not given here), PEG2-kk-GC (place not given here))", "values": [{"measurement": "differential cleavage between COVID and healthy samples", "setting": "COVID-related proteases; [5]", "result": "demonstrated contrast in both sets"}]}
{"molecule": "Probe #84: a Furin substrate (GRVKRGLAGK(CPQ2); not fully specified (N-terminus, C-terminus); also: 5-FAM (place not given here), PEG2-kk-GC (place not given here))", "values": [{"measurement": "differential cleavage between COVID and healthy samples", "setting": "COVID-related proteases; [5]", "result": "demonstrated contrast in both sets"}]}
{"molecule": "Probe #96: probe of Table 1 ({FAM}-GRPLALWESQGK(CPQ2)[PEG2″][dK]GC; not fully specified; printed as (FAM)-GRPLALWESQG-K(CPQ2)-PEG2-k-GC; also: FAM, position not given here)", "values": [{"measurement": "differentiation among healthy, regression and NASH samples", "setting": "[4]", "result": "can differentiate"}]}
{"molecule": "Probe #102: a CTSL sensing probe; sequence in Table 1 ({FAM}-GKPILFFRLKGK(CPQ2(3))[PEG2″][dK][dK]GC; not fully specified; printed as (FAM)-GKPILFFRLKG-K(CPQ2)-PEG2-kk-GC)", "values": [{"measurement": "protease to which the probe responds", "setting": "[1]; individual cathepsin inhibitors, FIG. 30D-F", "result": "specifically responds to the activity of cathepsin L (CTSL)"}, {"measurement": "differentiation among healthy, regression and NASH samples", "setting": "[4]", "result": "can differentiate"}]}
{"molecule": "Probe #409: the SARS CoV2 coronavirus substrate (SARS-COV2 3C protease) (GTSAVLQSGFRKGK(CPQ2); not fully specified (N-terminus, C-terminus); also: 5-FAM (place not given here), PEG2-kk-GC (place not given here))", "values": [{"measurement": "differential cleavage between COVID and healthy samples", "setting": "COVID-related proteases; K2 EDTA samples", "result": "modest contrast"}]}
{"molecule": "Probe #428: probe of Table 1 ({FAM}-GDRRKKLTQGK(CPQ2(3))[PEG2″][dK][dK]GC; not fully specified; printed as (FAM)-GDRRKKLTQG-K(CPQ2)-(PEG2)-DLys-DLys-GC)", "values": [{"measurement": "differentiation among healthy, regression and NASH samples", "setting": "[4]", "result": "can differentiate"}]}
{"molecule": "Probe #462: a MMP8 substrate (GKKAKRNALGK(CPQ2); not fully specified (N-terminus, C-terminus); also: FAM (place not given here), PEG2, DLys-DLys-GC (place not given here))", "values": [{"measurement": "differential cleavage between COVID and healthy samples", "setting": "COVID-related proteases; [5]", "result": "demonstrated contrast in both sets"}]}
{"molecule": "Probe #492: probe of Table 1 ({FAM}-GQRANSIRVTWGK(CPQ2(3))[PEG2″][dK][dK]GC; not fully specified; printed as (FAM)-GQRANSIRVTWG-K(CPQ2)-(PEG2)-DLys-DLys-GC)", "values": [{"measurement": "differentiation among healthy, regression and NASH samples", "setting": "[4]", "result": "can differentiate"}]}
{"molecule": "Probe #520: probe of Table 1 (GKPISLISSGK; not fully specified; 5FAM, CPQ2 quencher, PEG2; MOD_RES (11)..(11) Lys modified with a CPQ2 quencher)", "values": [{"measurement": "differentiation among healthy, regression and NASH samples", "setting": "[4]", "result": "can differentiate"}]}
